From ChEMBL document CHEMBL5505992, “Novel membrane-targeting isoxanthohumol-amine conjugates for combating methicillin-resistant Staphylococcus aureus (MRSA) infections” (Eur J Med Chem, 2024)
≈ marks a conversion by molar mass, not a printed value. Calls of active or inactive are those of the source. The calls are words filed in the database; no cut-off is given here.

Columns and labels:
Staphylococcus aureus [1] = assay: Antibacterial activity against Staphylococcus aureus ATCC 29213 at sub-inhibitory concentration measured after 4 passages for 16 to 18 hrs; type: functional, organism-based; conditions: time 16-18 hrs
Staphylococcus aureus [2] = assay: Drug resistance, ratio of MIC for Staphylococcus aureus ATCC 29213 after 15 passages exposure to MIC for Staphylococcus aureus ATCC 29213 during first exposure; type: functional
Cell membrane [3] = assay: Induction of cell membrane depolarization in methicillin-resistant Staphylococcus aureus clinical isolate MRSA-16 assessed as fold increase in fluorescence intensity at 32 ug/ml measured every 2 mins for 20 mins by DISC3(5) staining based analysis; type: cell membranes; conditions: dose 32.0 µg/ml
Cell membrane [4] = assay: Induction of cytoplasmic membrane depolarization in methicillin-resistant Staphylococcus aureus clinical isolate MRSA-16 assessed as increase in fluorescence intensity at 32 ug/ml measured every 2 mins for 20 mins by SYTOX green staining based analysis; type: cell membranes; conditions: dose 32.0 µg/ml
Cell membrane [5] = assay: Induction of cytoplasmic membrane depolarization in methicillin-resistant Staphylococcus aureus clinical isolate MRSA-16 assessed as fold increase in fluorescence intensity at 32 ug/ml measured every 2 mins for 20 mins by SYTOX green staining based analysis; type: cell membranes; conditions: dose 32.0 µg/ml
Staphylococcus aureus [6] = assay: Antibacterial activity against Staphylococcus aureus ATCC 29213 measured after 16 to 18 hrs by CLSI method; type: functional; conditions: time 16-18 hrs
Staphylococcus aureus [7] = assay: Antibacterial activity against methicillin-resistant Staphylococcus aureus clinical isolate MRSA-11 measured after 16 to 18 hrs by CLSI method; type: functional; conditions: time 16-18 hrs
Staphylococcus aureus [8] = assay: Antibacterial activity against methicillin-resistant Staphylococcus aureus clinical isolate MRSA-13 measured after 16 to 18 hrs by CLSI method; type: functional; conditions: time 16-18 hrs
Staphylococcus aureus [9] = assay: Antibacterial activity against methicillin-resistant Staphylococcus aureus clinical isolate MRSA-14 measured after 16 to 18 hrs by CLSI method; type: functional; conditions: time 16-18 hrs
Staphylococcus aureus [10] = assay: Antibacterial activity against methicillin-resistant Staphylococcus aureus clinical isolate MRSA-16 measured after 16 to 18 hrs by CLSI method; type: functional; conditions: time 16-18 hrs
Staphylococcus aureus [11] = assay: Antibacterial activity against methicillin-resistant Staphylococcus aureus clinical isolate MRSA-17 measured after 16 to 18 hrs by CLSI method; type: functional; conditions: time 16-18 hrs
Staphylococcus aureus [12] = assay: Antibacterial activity against methicillin-resistant Staphylococcus aureus clinical isolate MRSA-18 measured after 16 to 18 hrs by CLSI method; type: functional; conditions: time 16-18 hrs
Staphylococcus aureus [13] = assay: Antibacterial activity against methicillin-resistant Staphylococcus aureus clinical isolate MRSA-20 measured after 16 to 18 hrs by CLSI method; type: functional; conditions: time 16-18 hrs
Staphylococcus aureus [14] = assay: Antibacterial activity against methicillin-resistant Staphylococcus aureus clinical isolate MRSA-21 measured after 16 to 18 hrs by CLSI method; type: functional; conditions: time 16-18 hrs
Staphylococcus aureus [15] = assay: Antibacterial activity against methicillin-resistant Staphylococcus aureus clinical isolate MRSA-22 measured after 16 to 18 hrs by CLSI method; type: functional; conditions: time 16-18 hrs
Staphylococcus aureus [16] = assay: Antibacterial activity against methicillin-resistant Staphylococcus aureus clinical isolate MRSA-23 measured after 16 to 18 hrs by CLSI method; type: functional; conditions: time 16-18 hrs
Escherichia coli = assay: Antibacterial activity against Escherichia coli ATCC25922 measured after 16 to 18 hrs by CLSI method; type: functional; conditions: time 16-18 hrs
[17] = Hemolytic activity in sheep erythrocytes incubated for 1 hr by absorbance based analysis; type: toxicity, cell-based, Ovis aries, Erythrocyte
[18] = Selectivity index, ratio of HC50 for hemolytic activity in sheep erythrocytes to MIC for antibacterial activity against Staphylococcus aureus ATCC 29213; type: toxicity, cell-based; conditions: read-out: Selectivity Index

Row | SMILES | Activity (Staphylococcus aureus [1]) | fold change (FC) (Staphylococcus aureus [2]) | fold change (FC) (Cell membrane [3]) | Activity (Cell membrane [4]) | fold change (FC) (Cell membrane [5]) | MIC (Staphylococcus aureus [6]) | MIC (Staphylococcus aureus [7]) | MIC (Staphylococcus aureus [8]) | MIC (Staphylococcus aureus [9]) | MIC (Staphylococcus aureus [10]) | MIC (Staphylococcus aureus [11]) | MIC (Staphylococcus aureus [12]) | MIC (Staphylococcus aureus [13]) | MIC (Staphylococcus aureus [14]) | MIC (Staphylococcus aureus [15]) | MIC (Staphylococcus aureus [16]) | MIC (Escherichia coli) | HC50 at 1 h [17] | selectivity ratio [18]
1 | CCn1cc(C(=O)O)c(=O)c2cc(F)c(N3CCNCC3)cc21 [NORFLOXACIN] | Active | 128 |  |  |  |  |  |  |  |  |  |  |  |  |  |  |  |  | 
2 | CC[C@H](C)[C@H](NC(=O)CN)C(=O)NCC(=O)N[C@@H](C)C(=O)N[C@H](C(=O)N[C@@H](CC(C)C)C(=O)N[C@@H](CCCCN)C(=O)N[C@H](C(=O)N[C@@H](CC(C)C)C(=O)N[C@H](C(=O)N[C@H](C(=O)NCC(=O)N[C@@H](CC(C)C)C(=O)N1CCC[C@H]1C(=O)N[C@@H](C)C(=O)N[C@@H](CC(C)C)C(=O)N[C@H](C(=O)N[C@@H](CO)C(=O)N[C@@H](Cc1c[nH]c2ccccc12)C(=O)N[C@H](C(=O)N[C@@H](CCCCN)C(=O)N[C@@H](CCCNC(=N)N)C(=O)N[C@@H](CCCCN)C(=O)N[C@@H](CCCNC(=N)N)C(=O)N[C@@H](CCC(N)=O)C(=O)N[C@@H](CCC(N)=O)C(N)=O)[C@@H](C)CC)[C@@H](C)CC)[C@@H](C)O)[C@@H](C)O)C(C)C)C(C)C |  |  | 4.4 | Active | 7 |  |  |  |  |  |  |  |  |  |  |  |  |  | 
3 | COc1cc(OCCCCN2CCN(C)CC2)c(CC=C(C)C)c2c1C(=O)CC(c1ccc(OCCCCN3CCN(C)CC3)cc1)O2 (stereo not given) |  |  |  |  |  | 32 µg/mL (≈ 48.3 µM) | 32 µg/mL (≈ 48.3 µM) | 32 µg/mL (≈ 48.3 µM) | 32 µg/mL (≈ 48.3 µM) | 32 µg/mL (≈ 48.3 µM) | 16 µg/mL (≈ 24.1 µM) | 32 µg/mL (≈ 48.3 µM) | 32 µg/mL (≈ 48.3 µM) | 32 µg/mL (≈ 48.3 µM) | 32 µg/mL (≈ 48.3 µM) | 32 µg/mL (≈ 48.3 µM) | > 128 µg/mL | > 1280 µg/mL | > 40
4 | CCCN(CCC)CCCOc1ccc(C2CC(=O)c3c(OC)cc(OCCCN(CCC)CCC)c(CC=C(C)C)c3O2)cc1 (stereo not given) |  |  |  |  |  | 16 µg/mL (≈ 25.1 µM) | 16 µg/mL (≈ 25.1 µM) | 8 µg/mL (≈ 12.6 µM) | 16 µg/mL (≈ 25.1 µM) | 8 µg/mL (≈ 12.6 µM) | 8 µg/mL (≈ 12.6 µM) | 16 µg/mL (≈ 25.1 µM) | 16 µg/mL (≈ 25.1 µM) | 16 µg/mL (≈ 25.1 µM) | 16 µg/mL (≈ 25.1 µM) | 16 µg/mL (≈ 25.1 µM) | > 128 µg/mL | > 1280 µg/mL | > 80
5 | COc1cc(OCCCCCN2CCSCC2)c(CC=C(C)C)c2c1C(=O)CC(c1ccc(OCCCCCN3CCSCC3)cc1)O2 (stereo not given) |  |  |  |  |  | 32 µg/mL (≈ 45.9 µM) | > 128 µg/mL | > 128 µg/mL | > 128 µg/mL | > 128 µg/mL | > 128 µg/mL | > 128 µg/mL | > 128 µg/mL | > 128 µg/mL | > 128 µg/mL | > 128 µg/mL | > 128 µg/mL | > 640 µg/mL | > 20
6 | COc1cc(OCCCCN2CCCC(C)C2)c(CC=C(C)C)c2c1C(=O)CC(c1ccc(OCCCCN3CCCC(C)C3)cc1)O2 (stereo not given) |  |  |  |  |  | 16 µg/mL (≈ 24.2 µM) | 8 µg/mL (≈ 12.1 µM) | 8 µg/mL (≈ 12.1 µM) | 8 µg/mL (≈ 12.1 µM) | 8 µg/mL (≈ 12.1 µM) | 8 µg/mL (≈ 12.1 µM) | 16 µg/mL (≈ 24.2 µM) | 8 µg/mL (≈ 12.1 µM) | 16 µg/mL (≈ 24.2 µM) | 8 µg/mL (≈ 12.1 µM) | 16 µg/mL (≈ 24.2 µM) | > 128 µg/mL | 120 µg/mL | > 7.5
7 | COc1cc(OCCCN2CCN(C)CC2)c(CC=C(C)C)c2c1C(=O)CC(c1ccc(OCCCN3CCN(C)CC3)cc1)O2 (stereo not given) |  |  |  |  |  | 64 µg/mL (≈ 101 µM) | 32 µg/mL (≈ 50.4 µM) | 64 µg/mL (≈ 101 µM) | 64 µg/mL (≈ 101 µM) | 64 µg/mL (≈ 101 µM) | 32 µg/mL (≈ 50.4 µM) | 64 µg/mL (≈ 101 µM) | 64 µg/mL (≈ 101 µM) | 32 µg/mL (≈ 50.4 µM) | 32 µg/mL (≈ 50.4 µM) | 64 µg/mL (≈ 101 µM) | > 128 µg/mL | > 1280 µg/mL | > 20
